Source: patent US10238658B2, “1-pyrazolyl-3-(4-((2-anilinopyrimidin-4-yl) oxy) napththalen-1-yl) ureas as p38 MAP kinase inhibitors” (Respivert Limited, priority 2011, dated 2019)
pIC50: −log10 of the molar value.

Tested on: IL-8
Assay: LPS-induced IL-8 release in d-U937 cells
Assay type: cell-based
Details: Homo sapiens, dU937, dU937 cells
Summary of the method: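 U937 cells differentiated with PMA (100 ng/mL, 48–72 hr) were pre-incubated with compound for 2 hr, then stimulated with E. coli O111:B4 LPS (0.1 μg/mL) for 4 hr. Supernatant cytokine measured by sandwich ELISA; inhibition vs vehicle control at each concentration, REC50 taken from the concentration-response curve.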

Cc1ccc(-n2nc(C(C)(C)C)cc2NC(=O)Nc2ccc(Oc3ccnc(Nc4cccc(O)c4)n3)c3ccccc23)cc1 [Example 2, 1-(3-(tert-Butyl)-1-(p-tolyl)-1H-pyrazol-5-yl)-3-(4-((2-((3-hydroxyphenyl)amino)pyrimidin-4-yl)oxy)naphthalen-1-yl)urea]
pIC50: 8.57
